Data reported in the SangsterLogP compilation.

Compound `CN1CCN(CCCN2c3ccccc3Sc3ccccc32)CC1` has a logP of 4. `CCN(CC)CCNC(=O)c1ccc(N)cc1` gave a logP of 0.82. Compound `CNC(=O)Nc1c(OCCN2CCCC2)c(OC)c2occc2c1OC` has a logP of 1.38. For `CN1CCCCC1CCN1c2ccccc2Sc2ccc(S(C)(=O)=O)cc21` (stereo not drawn), the logP was 4.45. Work on `C=CCN1CCCC1CNC(=O)c1cc(S(=O)(=O)NC)c(N)cc1OC` (stereo not drawn) yielded a logP of 1.69. In the case of `CC(C)(C)c1cc(C(O)CCC2CCNCC2)c2ccccc2n1` (stereo not drawn), the logP is reported as 3.63. Work on `O=C(NCC1CCCCN1)c1cc(OCC(F)(F)F)ccc1OCC(F)(F)F` (stereo not drawn) yielded a logP of 3.78. Work on `CN(C)CCCN1c2ccccc2Sc2ccccc21` yielded a logP of 4.64. With `CCN(CC)CCCN(c1ccccc1)C1Cc2ccccc2C1` the logP was 4.86. In the case of `C=CCN1CCCC1CNC(=O)c1cc(S(N)(=O)=O)cc(OC)c1OC` (stereo not drawn), the logP is reported as 1.47. For `COc1ccc2c(c1)-c1c(ccc(OC)c1O)CC(CCc1ccccc1)N(C)CC2` (stereo not drawn), the logP was 4.85. Compound `CC(C)NCCCC1(C(N)=O)c2ccccc2-c2ccccc21` has a logP of 3.11. Compound `CC(C)NCC(O)COc1cccc2c1N(C(=O)c1cccnc1)CCC2` (stereo not drawn) has a logP of 1.63.
